Assay in all cases: In vitro cytotoxicity, CellTiter-Glo
Common to all, as to format: cell-based

The test system of experiment [1] is A431 cells. To be noted: Homo sapiens. On the procedure:
(§1) In vitro cytotoxicity assays were carried out using various antibodies, payloads (i.e., agent moieties), and amine donor units. For mAb2 (a chimeric IgG1 antibody), target expressing (A431, OVCAR3, BxPC3 and HT-29) or non-expressing (SW620) cells were seeded on white walled clear bottom plates at 2000 cells/well for 24 hours before treatment. […] Cell viability was determined by CellTiter-Glo® Luminescent Cell Viability Assay 96 (Promega, Madison Wis.) 96 hours after treatment. […] IC50 was calculated by Prism software.

The test system of experiment [2] is HT-29 cells. The conditions noted are these: Homo sapiens; HT-29, target expressing, 96 hours; read-out: HT-29 Antibody IC50. Here is the method: as §1
Experiment [3] relates to BxPC3 cells. To be noted: Homo sapiens, BXPC-3, 96 h, read-out: BxPC3 Antibody IC50 (nM). Here is the method: as §1
The test system of experiment [4] is SW620 cells. To be noted: Homo sapiens. On the procedure: as §1
The mark [5] stands for this setting: A-431, 96 h, read-out: A431 Antibody IC50 (nM).
Where [6] appears, read: SW-620, SW620, target non-expressing, 96 hours, read-out: SW620 Antibody IC50.
[7] abbreviates: A-431, A431, target expressing, 96 hours, read-out: A431 Antibody IC50.

Where two headings read alike, the source gives them in different places. Numbered stars: 1 amine (or outer) side, 2 acyl side, 3 side chain; on linkers, the order of the positions; unused ones are H or OH. Square brackets hold non-standard residues; d marks the D form. Peptide text beside a SMILES is read from it. * marks the point of attachment. ξ: configuration not given here. Dolaproine = CO[C@@H]([C@@H]1CCCN1)[C@@H](C)C(=O)O; X1 = COC([C@@H](C)C(=O)[*:2])[C@@H]1CCCN1[*:1]; Dil = CC[C@H](C)[C@H](NC)[C@@H](CC(=O)O)OC; PABC = O=C(OCc1ccc(N[*:1])cc1)[*:2]; Doe = c1ccc(C[C@H](N*)c2nccs2)cc1; X2 = C[C@@H](N*)[C@@H](O)c1ccccc1; Cit = NC(=O)NCCC[C@H](N)C(=O)O; NMeV = CN[C@H](C(=O)O)C(C)C; PEG3 = NCCOCCOCCOCCC(=O)O; ξK = NCCCCC(N)C(=O)O; Ahx = NCCCCCC(=O)O; βAla = NCCC(=O)O

`CC[C@H](C)[C@@H]([C@@H](CC(=O)N1CCC[C@H]1[C@H](OC)[C@@H](C)C(=O)N[C@@H](Cc1ccccc1)c1nccs1)OC)N(C)C(=O)[C@@H](NC(=O)[C@H](C(C)C)N(C)C(=O)OCc1ccc(NC(=O)[C@H](CCCNC(N)=O)NC(=O)[C@@H](NC(=O)[C@H](CCCCN)NC(C)=O)C(C)C)cc1)C(C)C` [Sample 27, AcLys-VC-PABC-MMAD] (Ac-KV[Cit][PABC][NMeV]V[Dil][Dolaproine]-Doe): the IC50 was determined as 0.003 nM in experiment [1] (setting [5]) and 0.189 nM in experiment [2].

Take `CC[C@H](C)[C@@H]([C@@H](CC(=O)N1CCC[C@H]1[C@H](OC)[C@@H](C)C(=O)N[C@H](C)[C@@H](O)c1ccccc1)OC)N(C)C(=O)[C@@H](NC(=O)[C@H](C(C)C)N(C)C(=O)CCOCCOCCOCCN)C(C)C` [Sample 33, Amino-PEG3-C2-MMAE] (H-[PEG3][NMeV]V[Dil][Dolaproine]-X2): the IC50 in experiment [1] (setting [5]) was found to be 258 nM; in experiment [2] it was 211 nM.

For the compound `CC[C@H](C)[C@@H]([C@@H](CC(=O)N1CCC[C@H]1C(OC)[C@@H](C)C(=O)N[C@@H](Cc1ccccc1)C(=O)O)OC)N(C)C(=O)[C@@H](NC(=O)[C@H](C(C)C)N(C)C(=O)CCCCCN)C(C)C` (stereo partly drawn) [Sample 23, Aminocaproyl-MMAF] (H-[Ahx][NMeV]V[Dil][X1]F-OH), the IC50 in experiment [3] turned out to be 0.28 nM; in experiment [4] (setting [6]), 0.01 nM.

As to `CC[C@H](C)[C@@H]([C@@H](CC(=O)N1CCC[C@H]1[C@H](OC)[C@@H](C)C(=O)N[C@@H](Cc1ccccc1)c1nccs1)OC)N(C)C(=O)[C@@H](NC(=O)[C@H](C(C)C)N(C)C(=O)CCCCCN)C(C)C` [Sample 28, Aminocaproyl-MMAD] (H-[Ahx][NMeV]V[Dil][Dolaproine]-Doe), the IC50 in experiment [1] (setting [7]) is 146 nM; in experiment [2] it was 97.5 nM.

`CO[C@H]1/C=C\C=C(/C)C(=O)NC2=CC(=O)C(NCCCCN)=C(C[C@@H](C)C[C@H](OC)[C@H](O)[C@@H](C)/C=C(\C)[C@@H]1OC(N)=O)C2=O` [Sample 25, Putrescinyl-Geldanamycin]: the values for the IC50 in experiment [1] (setting [7]), in experiment [2] and in experiment [4] (setting [6]) were above 1000 nM, 318 nM and above 1000 nM, respectively.

For the compound `CC[C@H](C)[C@@H]([C@@H](CC(=O)N1CCC[C@H]1[C@H](OC)[C@@H](C)C(=O)N[C@@H](Cc1ccccc1)c1nccs1)OC)N(C)C(=O)[C@@H](NC(=O)[C@H](C(C)C)N(C)C(=O)CCNC(=O)C(CCCCN)NC(C)=O)C(C)C` (stereo partly drawn) [Sample 30, AcLys-β-Ala-MMAD] (Ac-[ξK][βAla][NMeV]V[Dil][Dolaproine]-Doe), the IC50 in experiment [1] (setting [7]) turned out to be 98.5 nM; in experiment [2], 59.5 nM.

Take `CC[C@H](C)[C@@H]([C@@H](CC(=O)N1CCC[C@H]1[C@H](OC)[C@@H](C)C(=O)N[C@@H](Cc1ccccc1)C(=O)O)OC)N(C)C(=O)[C@@H](NC(=O)[C@H](C(C)C)N(C)C(=O)OCc1ccc(NC(=O)[C@H](CCCNC(N)=O)NC(=O)[C@@H](NC(=O)CCCCCN)C(C)C)cc1)C(C)C` [Sample 24, VC-PABC-MMAF] (H-[Ahx]V[Cit][PABC][NMeV]V[Dil][Dolaproine]F-OH): the IC50 in experiment [3] is 427 nM; in experiment [4] (SW-620, 96 h, read-out: SW620 Antibody IC50 (nM)) it was 483 nM.

The term IC50 denotes the concentration that inhibits the measured activity by half.

The values are drawn from US10941216B2, “Engineered polypeptide conjugates and methods for making thereof using transglutaminase” (PFIZER INC., priority 2010, dated 2021).
